Source: US4751221A, “2-fluoro-arabinofuranosyl purine nucleosides” (Sloan-Kettering Institute for Cancer Research, priority 1985, dated 1988)

How the values were obtained:
P-813 cells = assay: Cytotoxicity against P-813 (text: P-815) mouse leukemia cells; type: cell-based; conditions: for IC50: P815, mouse leukemia cells P-813, read-out: ID50 P-813; for activity against mouse leukemic cells P-815: in words
L-1210 cells = assay: Cytotoxicity against L-1210 mouse leukemia cells; type: cell-based; conditions: for activity against mouse leukemic cells L-1210: in words
CCRF-CEM cells = assay: Cytotoxicity against CCRF-CEM human tumor cells; type: cell-based; conditions: for IC50: human cells CCRF-CEM, read-out: ID50 CCRFCEM; for inhibitory activity against human tumor cell line CCRF-CEM: in words
NL (Namalva) cells = assay: Cytotoxicity against NL (Namalva) human tumor cells; type: cell-based; conditions: for IC50: NAMALVA, human cells NL, read-out: ID50 NL; for inhibitory activity against human tumor cell line Namalva: in words
[1] = system: Leishmania tropica promastigotes; assay: Growth inhibition of Leishmania tropica promastigotes; type: cell-based; conditions: 50% growth inhibition, read-out: inhibits the growth of Leishmania tropica promastigotes by 50% at the concentration
[2] = system: L-1210 mouse leukemic cells; conditions: in tissue culture; Wilson et al., J. Med. Chem., 13, 369 (1970); cited from earlier work

Compound	IC50 (P-813 cells)	activity against mouse leukemic cells P-815 (P-813 cells)	activity against mouse leukemic cells L-1210 (L-1210 cells)	IC50 (CCRF-CEM cells)	inhibitory activity against human tumor cell line CCRF-CEM (CCRF-CEM cells)	IC50 (NL (Namalva) cells)	inhibitory activity against human tumor cell line Namalva (NL (Namalva) cells)	IC50 [1]	IC50 (L-1210 cells; L1210, mouse leukemia cells L-1210, read-out: ID50 L-1210)	cytotoxicity against L-1210 cells (L-1210 cells; at the concentration of 100 μM)	growth-inhibitory effect against L-1210 mouse leukemic cells [2]
Nc1nc(S)c2ncn([C@@H]3O[C@H](CO)[C@@H](O)[C@@H]3F)c2n1 [9-(2'-deoxy-2'-fluoro-β-D-arabinofuranosyl)-2-amino-6-thiopurine]	4.6 µM	modest	modest	0.1 µM	potent inhibitory activity	1.2 µM	potent inhibitory activity				
Nc1nc2c(ncn2[C@@H]2O[C@H](CO)[C@@H](O)[C@@H]2F)c(=O)[nH]1 [9-(2'-deoxy-2'-fluoro-β-D-arabinofuranosyl)-guanine]	5.4 µM	modest	modest	< 0.1 µM	potent inhibitory activity	0.7 µM	potent inhibitory activity				
O=c1[nH]cnc2c1ncn2[C@@H]1O[C@H](CO)[C@@H](O)[C@@H]1F [9-(2'-deoxy-2'-fluoro-β-D-arabinofuranosyl)hypoxanthin]	> 30 µM			15.1 µM		~30 µM		0.6 µM	> 30 µM	does not exhibit any cytotoxicity	
Nc1ccn([C@@H]2O[C@H](CO)[C@@H](O)[C@@H]2F)c(=O)n1 [FAC, 1-(2'-deoxy-2'-fluoro-β-D-arabinofuranosyl)cytosine]											comparable with that of 1-(β-D-arabinofuranosyl)cytosine (ara-C) and 1-(β-D-arabinofuranosyl)-5-fluorocytosine (ara-FC)
Nc1ncnc2c1ncn2[C@@H]1O[C@H](CO)[C@@H](O)[C@@H]1F [X = NH2, Y = H, 9-(2'-deoxy-2'-fluoro-β-D-arabinofuranosyl)adenine]	> 30 µM			0.67 µM		3 µM					
OC[C@H]1O[C@@H](n2cnc3c(S)ncnc32)[C@@H](F)[C@@H]1O [X = SH, Y = H, 9-(2'-deoxy-2'-fluoro-β-D-arabinofuranosyl)-6-thiopurine]	10 µM			10 µM		2 µM					
